# According to patent publication US5817669A, “Compounds, processes for the preparation thereof and anti-tumor agents” (Dainippon Pharmaceutical Co., Ltd., priority 1994, dated 1998):
# Read-outs that look alike come from different tables or passages of the source.
# Legend:
# [1] = test system: A427 human lung cancer; assay: In vitro anti-tumor activity against A-427 human lung cancer (MTT); type: cell-based; conditions: A-427, 72 h, MTT, read-out: IC50
# Method: (§1) A culture medium containing 500 to 2,000 human cancer cells was put in an amount of 0.1 ml in each well of 96-well plate, and the cells were cultured for 20 hours under a condition of 37° C. and 5% carbon dioxide gas in air. After the culturing, a solution of test compounds of predetermined concentration was added, and then, the cells were cultured for further 72 hours. After the culturing, an MTT (5 mg/ml) solution was added in an amount of 0.01 ml in the respective wells, and the cells were cultured for further 4 hours. The supernatants of the culture medium were removed by suction, and then, 0.1 ml of dimethyl sulfoxide was put in respective well to dissolve the formed formazan, and, moreover, 0.1 ml of dimethyl sulfoxide was added.
# [2] = test system: HMV2 human melanoma; assay: In vitro anti-tumor activity against HMV-2 human melanoma (MTT); type: cell-based; conditions: HMV-2, 72 h, MTT, read-out: IC50
# Method: as §1
# [3] = test system: murine P388 lymphocytic leukemia cells; assay: In vitro anti-tumor activity against murine P388 lymphocytic leukemia cells (MTT, 72 h); type: cell-based; conditions: Mus musculus; murine P388 cells, 72 h, MTT; read-out: IC50 (50% proliferation inhibitory concentration)
# Method: Test compounds were tested for anti-tumor activity according to MTT [3-(4,5-dimethylthiazol-2-yl)-2,5-diphenyltetrazolium bromide] method, using murine P388 lymphocytic leukemia cells. […] The culture medium was centrifuged (4° C., 2,000 rpm for 20 minutes), and thus, the supernatants were removed by suction. Then, 0.1 ml of dimethyl sulfoxide was put in each well to dissolve the formed formazan, and, subsequently, another 0.1 ml of dimethyl sulfoxide was added. The absorbance (OD) of each of the obtained solutions was measured by use of Multiskan Bichromatic (main wavelength 570 nm, sub-wavelength 690 nm). […] IC50 :μg/ml) were calculated by the least squares method.
# [4] = test system: AZ521 human stomach cancer; assay: In vitro anti-tumor activity against AZ-521 human stomach cancer (MTT); type: cell-based; conditions: AZ-521, 72 h, MTT, read-out: IC50
# Method: as §1
# [5] = test system: KB human nasopharynx cancer; assay: In vitro anti-tumor activity against KB human nasopharynx cancer (MTT); type: cell-based; conditions: KB, 72 h, MTT, read-out: IC50
# Method: as §1
# [6] = test system: murine P388 lymphocytic leukemia cells; assay: Increases in life span of mice implanted with murine P388 lymphocytic leukemia cells; type: in vivo, SLC: BDF1 mice; conditions: Mus musculus, P388, ip, 720 h, ip
# Method: 1×10^6 murine P388 lymphocytic leukemia cells were intraperitoneally implanted in each of SLC: BDF1 mice (8 to 10 weeks old, female, 7 animals per one group). A test compound (drug) was either dissolved in 0.1 N--NaOH or suspended in 0.4% carboxymethylcellulose solution, and the resultant solution or suspension was diluted with distilled water or 0.4% carboxymethylcellulose solution so as to give predetermined concentrations for administration. The obtained solution was intraperitoneally (ip) administered twice, namely on the day following the implantation (1st day) and the 5th day, each 0.2 ml. The life and death of the mice were observed over a period of 30 days, and the median survival time (hereinafter referred to as MST) was determined for each group, and, thus, the increase in life span (ILS; %) was calculated according to the following equation:
# ILS (%)=[{(MST of the test group)/(MST of the control group)}-1]×100
# Drug effect was judged in the following manner, according to the criterion of U.S. National Cancer Institute (NCI):
# ILS=75% or higher: ++ (remarkably effective);
# 20 to 74%: + (effective);
# 19% or lower: - (ineffective)
# [7] = test system: MKN45 human stomach cancer; assay: In vitro anti-tumor activity against MKN45 human stomach cancer (MTT); type: cell-based; conditions: MKN-45, MKN45, 72 h, MTT, read-out: IC50
# Method: as §1
# [8] = test system: colon 26 murine tumor cells; assay: Tumor growth inhibition effect on colon 26 murine tumor cells implanted mice; type: in vivo, SLC: CDF1 mice; conditions: Mus musculus, Colon 26, 504 h, ip, days 1-9, day 21 or 22, read-out: Tumor growth inhibition rate IR (%); for inhibition in vivo at 3.13 mg/kg: 3.13 mg/kg once a day
# Method: A 2% brei of colon 26 murine tumor cells was intracutaneously implanted each 0.1 ml in the abdominal part of SLC: CDF1 female mice (7 to 9 weeks old, 7 animals per one group). […] The obtained solutions were intraperitoneally (ip) administered each 0.2 ml once a day, from the day (1st day) following the implantation to the 9th day. On the 21st or 22nd day after the implantation, tumor weight was estimated from tumor diameters, and thus, the tumor growth inhibition rate (IR %) of the drug administered group in comparison with the control group was calculated according to the following equation. IR (%)=[1-{(MTW in the treated group)/(MTW in the control group)}]×10 0 MTW: mean tumor weight
# [9] = test system: WiDr human colorectal cancer; assay: In vitro anti-tumor activity against WiDr human colorectal cancer (MTT); type: cell-based; conditions: 72 h, MTT, read-out: IC50
# Method: as §1
# [10] = test system: C33A human cervix cancer; assay: In vitro anti-tumor activity against C-33A human cervix cancer (MTT); type: cell-based; conditions: C-33A, 72 h, MTT, read-out: IC50
# Method: as §1
# [11] = NCI criterion, read-out: Evaluation
# [12] = days 1 and 5, in suspension, read-out: ILS (%) (in suspension)
Compound,IC50 [1] [µg/mL],IC50 [2] [µg/mL],IC50 [3] [ng/mL],IC50 [4] [µg/mL],IC50 [5] [µg/mL],"ILS at 3.13 mg/kg [6, 11] [%]","ILS at 12.5 mg/kg [6, 11] [%]","ILS at 50 mg/kg [6, 11] [%]","ILS at 3.13 mg/kg [6, 12] [%]","ILS at 12.5 mg/kg [6, 12] [%]","ILS at 50 mg/kg [6, 12] [%]",IC50 [7] [µg/mL],inhibition in vivo at 3.13 mg/kg [8] [%],inhibition in vivo at 6.25 mg/kg ([8]; 6.25 mg/kg once a day) [%],IC50 [9] [µg/mL],IC50 [10] [µg/mL],inhibition in vivo at 1.1 mg/kg ([8]; 1.10 mg/kg once a day) [%]
"Cl.Nc1cc(N2CCC(N)C2)nc2c1c(=O)c(C(=O)O)cn2-c1nccs1 (stereo not shown) [Compound 9, 5-Amino-7-(3-amino-1-pyrrolidinyl)-1,4-dihydro-4-oxo-1-(2-thiazolyl)-1,8-naphthyridine-3-carboxylic acid hydrochloride]",0.1,0.211,8.09,0.0625,0.106,> 75,> 75,> 75,100,125,250,0.148,62,97,0.412,0.151,
CN[C@@H]1CN(c2ccc3c(=O)c(C(=O)O)cn(-c4nccs4)c3n2)C[C@@H]1OC (relative stereo) [Compound 1-4],0.158,0.197,20,0.0985,0.147,20 to 74,> 75,,25,100,,0.131,61,,0.273,0.143,
"CN[C@@H]1CN(c2ccc3c(=O)c(C(=O)O)cn(-c4nccs4)c3n2)C[C@H]1OC (single isomer, unassigned) [Compound 1-2, (+)-1,4-Dihydro-7-(trans-3-methoxy-4-methylamino-1-pyrrolidinyl)-4-oxo-1-(2-thiazolyl)-1,8-naphthyridine-3-carboxylic acid]",0.0925,0.114,6.41,0.0396,0.0873,,,,,,,0.155,,,0.357,0.0828,69
C[C@@H]1[C@@H](N)CCN1c1ccc2c(=O)c(C(=O)O)cn(-c3nccs3)c2n1 (relative stereo) [Compound 17],,,,,,,,> 75,,,150,,,,,,
